Reference: PMC10146491, “Meroterpenoids from Gongolaria abies-marina against Kinetoplastids: In Vitro Activity and Programmed Cell Death Study” (Pharmaceuticals, 2023)

Columns and labels:
[1] = test system: L. amazonensis promastigotes; test: Mitochondrial membrane potential (JC-1 assay); format: cell-based, Leishmania amazonensis; details: IC90, 24 h
Method: (§1) To study the mechanism of cell death induced in parasites by compounds isolated from Gongolaria abies-marina, a common step was carried out to perform the following five experiments. The promastigotes of Leishmania spp. and epimastigotes of T. cruzi were incubated at the IC90 levels of the compounds (previously calculated) for 24 h at 26 °C. After incubation, the parasites were centrifuged at 3000 rpm for 10 min at 4 °C. The pellets were resuspended following the manufacturer’s instructions for each kit. A JC-1 Mitochondrial Membrane Potential Assay Kit® (Cayman Chemical, Ann Arbor, MI, USA) was used to analyze variations in the mitochondrial membrane potential of the parasites after incubation at the IC90 levels of the compounds. After centrifugation, the parasites were resuspended in the same buffer and transferred to a black 96-well plate. JC-1 was added following the manufacturer’s instructions as also described by López-Arencibia et al. (2020). Green and red fluorescence was measured using an EnSpire® Multimode Plate Reader (PerkinElmer, Madrid, Spain).

[2] = test system: epimastigotes of Trypanosoma cruzi; test: Trypanocidal activity assay (Alamar Blue), epimastigotes; format: cell-based
Method: (§2) To carry out the experiments, promastigotes of Leishmania amazonensis (MHOM/BR/77/LTB0016) and L. donovani (MHOM/IN/90/GE1F8R) and epimastigotes of Trypanosoma cruzi (Y strain) were employed. Leishmania species were cultured in Schneider’s medium (Sigma-Aldrich, Madrid, Spain), supplemented with 10% fetal bovine serum (VWR, Biowest, Nuaillé, France) and incubated at 26 °C. RPMI 1640 medium (Gibco, Thermo Fisher, Madrid, Spain) with or without phenol red was also used to culture the parasites at the same temperature. Epimastigotes of T. cruzi were cultured in liver infusion tryptose (LIT) medium supplemented with 10% fetal bovine serum at 26 °C. A cytotoxicity assay was performed using a murine macrophage cell line J774A.1 (ATCC TIB-67), which was maintained in Dulbecco’s modified Eagle’s medium (Gibco, Thermo Fisher, Madrid, Spain) supplemented with 10% of fetal bovine serum at 37 °C in a 5% CO2 atmosphere.
(§3) With the objective of determining the antiparasitic activity of the compounds isolated from G. abies-marina, leishmanicidal activity assays were performed against promastigote stages of L. amazonensis and L. donovani, as well as a trypanocidal activity assay performed against epimastigote stages of T. cruzi. In both parasites, a colorimetric assay was used based on the Alamar Blue reagent (Life Technologies, Madrid, Spain) as previously described by Bethencourt-Estrella et al. (2021).
(§4) In a sterile 96 well-plate, serial dilutions of the extracts, fractions or compounds isolated from G. abies-marina were performed in RPMI 1640 medium without phenol red (in the case of Leishmania spp.) or in LIT (in the case of T. cruzi) with a final volume of 100 µL. Parasites were added to wells to reach a concentration of 5 × 10^5 (Leishmania spp.) or 2.5 × 10^5 (T. cruzi) until a final volume of 200 µL/well. Next, 10% of Alamar Blue® was placed into each well and the plate was incubated for 72 h at 26 °C. Finally, the fluorescence of each well was measured using an EnSpire® Multimode Plate Reader (Perkin Elmer, Madrid, Spain) (544 nm excitation, 590 nm emission) and the concentration that inhibits 50% of the parasite population (IC50) was calculated using a non-linear regression analysis with 95% confidence limits. Miltefosine and benznidazol were used as reference drugs. To analyze the data and calculate the IC50, SigmaPlot 12.0 statistical analysis software (Systat Software Inc, Palo Alto, CA, USA) was used.
(§5) The 50% inhibitory concentration (IC50) and 50% cytotoxic concentration (CC50) values were obtained using Sigma Plot 12.0 statistical analysis software (Systat Software) and calculated using a non-linear regression analysis with 95% confidence limits. Leishmanicidal and trypanocidal activity assays, as well as cytotoxicity assays, were performed three times on different days, and the results were expressed as means ± standard deviations. The analysis of variance was determined using a one-way ANOVA using the GraphPad.PRISM® 9.0 software program (GraphPad Software, San Diego, CA, USA). Differences at p < 0.05 were considered statistically significant.

[3] = test system: intracellular amastigotes of L. amazonensis; test: In vitro effect against amastigote stage in infected macrophages; format: cell-based, Leishmania amazonensis
Method: To determine the in vitro effect against the amastigote stage of L. amazonensis, murine macrophages were infected. In a sterile 96 well-plate, macrophages of the J774A.1 cell line were placed in RPMI 1640 to reach 10^5 macrophages per well. This plate was incubated at 37 °C in a 5% CO2 atmosphere. After one hour of incubation, 100 µL of stationary-phase promastigotes of 7-day-old culture was added in a 10:1 ratio (10^6 parasites per well) and the plates were re-incubated at 37 °C for 24 h to achieve maximum infection. Then, the wells were washed with fresh medium to remove non-phagocytosed promastigotes. The infected macrophages were treated with the compounds isolated for 24 h. Then, the medium was removed carefully to be replaced by 30 μL of 0.05% SDS and the plate was shaken for 30 s. After broke macrophages, 170 μL of Schneider’s medium was added to each well to give a final volume of 200 μL and 20 μL of Alamar Blue® was added to the plate being incubated at 26 °C for 72 h, as described by López-Arencibia et al. (2017). After 72 h of incubation, the plates were analyzed using the same protocol for the promastigote test.

[4] = test system: L. donovani promastigotes; test: ATP level analysis (Cell Titer-Glo); format: cell-based, Leishmania donovani; details: IC90 of compound, 24 h
Method: (§6) To study the mechanism of cell death induced in parasites by compounds isolated from Gongolaria abies-marina, a common step was carried out to perform the following five experiments. The promastigotes of Leishmania spp. and epimastigotes of T. cruzi were incubated at the IC90 levels of the compounds (previously calculated) for 24 h at 26 °C. After incubation, the parasites were centrifuged at 3000 rpm for 10 min at 4 °C. The pellets were resuspended following the manufacturer’s instructions for each kit. After the incubation of promastigotes and epimastigotes of the parasites with the IC90 of the compounds, the changes in ATP levels were measured using a Cell Titer-Glo® Luminescent Cell Viability Assay (Promega, WI, USA). The assay was carried out in a white 96-well plate following the manufacturer’s instructions, as previously described by Cartuche et al. (2020). The luminescence was measured using an EnSpire® Multimode Plate Reader (PerkinElmer, Madrid, Spain).

[5] = Cytotoxicity assay (Alamar Blue); format: cell-based; details: mouse, J774A.1 murine macrophage cell line, J774A.1, 24 h, read-out: Cytotoxicity CC50, murine macrophages
Method: as §2
In a sterile 96-well plate, murine macrophages of the cell line J774A.1 were placed to reach an amount of 10^5 cells per well using RPMI 1640 medium without phenol red. After murine macrophage attachment, 50 µL serial dilutions of the isolated compounds were added in each well until reaching a final volume of 100 µL. Next, 10% of Alamar Blue® was placed into each well and the plate was incubated for 24 h at 37 °C with a 5% CO2 atmosphere. Finally, the plates were analyzed using an EnSpire® Multimode Plate Reader (PerkinElmer, Madrid, Spain), as described in the previous section, and the 50% cytotoxic concentration (CC50) values were calculated.
as §5

[6] = test system: L. donovani promastigotes; test: Mitochondrial membrane potential (JC-1 assay); format: cell-based, Leishmania donovani; details: IC90, 24 h
Method: as §1

T. cruzi epimastigotes [7] = test: ATP level analysis (Cell Titer-Glo); format: cell-based, Trypanosoma cruzi; details: IC90 of compound, 24 h
Method: as §6

T. cruzi epimastigotes [8] = test: Mitochondrial membrane potential (JC-1 assay); format: cell-based, Trypanosoma cruzi; details: IC90, 24 h
Method: as §1

[9] = test system: promastigotes of L. amazonensis; test: Leishmanicidal activity assay (Alamar Blue), promastigotes; format: cell-based, Leishmania amazonensis
Method: as §2, §3, §4, §5

[10] = test system: L. amazonensis promastigotes; test: ATP level analysis (Cell Titer-Glo); format: cell-based, Leishmania amazonensis; details: IC90 of compound, 24 h
Method: as §6

[11] = test system: promastigotes of L. donovani; test: Leishmanicidal activity assay (Alamar Blue), promastigotes; format: cell-based, Leishmania donovani
Method: as §2, §3, §4, §5

With `COc1c(C)cc(O)cc1C/C=C(\C)CC(=O)/C=C(\C)CCCC(C)=O` [Cystomexicone B (1), cystomexicone B] the “Mitochondrial membrane potential changes (JC-1)” value [1] was “does not produce significant changes”, the “Selectivity index (CC50/IC50), T. cruzi” value ([2]; CC50 in murine macrophages) was over 14.53 and the IC50 ([2]; Trypanosoma cruzi, 72 h, Alamar Blue, read-out: Antikinetoplastid activity IC50, T. cruzi) was 19.2 ± 2.62 µM. For the same molecule, the “Selectivity index (CC50/IC50), amastigotes of L. amazonensis” value ([3]; CC50 in murine macrophages) was over 11.36, the IC50 ([3]; Leishmania amazonensis, J774.A1, intracellular amastigotes in J774A.1 macrophages, 24 h treatment) was 24.6 ± 0.83 µM and the “ATP levels relative to negative control” value [4] was “significantly decreased”. The CC50 at 24 h [5] was over 279 µM, the “Mitochondrial membrane potential changes (JC-1)” value [6] was “does not produce significant changes” and the “ATP levels relative to negative control” value (T. cruzi epimastigotes [7]) was “significantly decreased”. The “ATP levels relative to negative control” value (T. cruzi epimastigotes [7]; listed as cystomexicone B (1)) was “most affected”, the “Mitochondrial membrane potential changes (JC-1)” value (T. cruzi epimastigotes [8]) was “does not produce significant changes” and the “Selectivity index (CC50/IC50), L. amazonensis” value ([9]; CC50 in murine macrophages) was over 7.61. For the same molecule, the IC50 ([9]; Leishmania amazonensis, 72 h, Alamar Blue, read-out: Antikinetoplastid activity IC50, L. amazonensis) was 36.6 ± 4.24 µM, the “ATP levels relative to negative control” value [10] was “significantly decreased” and the “Selectivity index (CC50/IC50), L. donovani” value ([11]; CC50 in murine macrophages) was over 1.12. It also gave an IC50 ([11]; Leishmania donovani, 72 h, Alamar Blue, read-out: Antikinetoplastid activity IC50, L. donovani) of 248.3 ± 0.94 µM.
